Values quoted from earlier work, collected in patent US8198326B2, “Phenolic antiseptic compositions and methods of use” (3M Innovative Properties Company, priority 2004, dated 2012).

Tested on: methicillin resistant staphylococcus aureus
Conditions: reaction of free iodine with the organic load

povidone-iodine
decrease of activity on addition of nasal secretions: 80-90%
